From the NIST ThermoML archive (doi:10.1016/j.jct.2009.07.020)

Assays:
[1] = 293.15 K, 101.33 kPa, Liquid; for speed of sound: Sing-around technique in a fixed-path interferometer; for mass density: Vibrating tube method
[2] = xn = mol fraction of the nth substance listed; details: 101 kPa, Liquid; for speed of sound: Sing-around technique in a fixed-path interferometer; for mass density: Vibrating tube method

BrCCBr [1,2-dibromoethane]
[1]
Details | mass density [kg/m3] | speed of sound [m/s]
– | 2179.6 | 1007

ClC(Cl)=C(Cl)Cl [tetrachloroethene] + CCCCCCCCCCO
[2]
Details | mass density, 293.15 K [kg/m3] | mass density, 313.15 K [kg/m3] | speed of sound, 293.15 K [m/s] | speed of sound, 313.15 K [m/s]
x1 = 0.057 | 854.607 | 840.425 | 1378.1 | 1310.7
x1 = 0.1355 | 890.745 | 875.885 | 1350.2 | 1283.1
x1 = 0.2186 | 932.241 | 916.585 | 1319.8 | 1252.8
x1 = 0.2882 | 969.944 | 953.338 | 1294.8 | 1228.4
x1 = 0.3824 | 1025.8 | 1007.72 | 1260.6 | 1195
x1 = 0.4464 | 1067.31 | 1048.17 | 1237.2 | 1172
x1 = 0.499 | 1103.86 | 1083.69 | 1218.5 | 1153.5
x1 = 0.5849 | 1168.91 | 1146.94 | 1187.2 | 1122.7
x1 = 0.6417 | 1216.01 | 1192.81 | 1166.5 | 1102.9
x1 = 0.7175 | 1284.75 | 1259.72 | 1139.4 | 1076
x1 = 0.7786 | 1345.73 | 1319.21 | 1117.7 | 1054.1
x1 = 0.8527 | 1427.55 | 1398.72 | 1092.4 | 1029.3
x1 = 0.9003 | 1485.31 | 1455.08 | 1077.6 | 1015
x1 = 0.941 | 1538.45 | 1507.24 | 1065.9 | 1005
x1 = 1 | 1622.39 | 1588.98 | 1053.8 | 993.96

CCCCCCCCCCO [decan-1-ol]
[1]
Details | mass density [kg/m3] | speed of sound [m/s]
– | 829.991 | 1396.4

CCCCCCCCCCO [decan-1-ol] + ClCCCl
[2], x2 = 0
Details | mass density [kg/m3] | speed of sound [m/s]
293.15 K | 829.991 | 1396.4
313.15 K | 816.264 | 1328.7

ClCCCl [1,2-dichloroethane] + CCCCCCCCCCO
[2]
Details | mass density, 293.15 K [kg/m3] | mass density, 313.15 K [kg/m3] | speed of sound, 293.15 K [m/s] | speed of sound, 313.15 K [m/s]
x1 = 0.0692 | 841.579 | 827.391 | 1382.8 | 1314.9
x1 = 0.1136 | 849.567 | 835.077 | 1373.9 | 1305.7
x1 = 0.2034 | 867.401 | 852.221 | 1355.3 | 1287.4
x1 = 0.2938 | 887.762 | 871.824 | 1335.6 | 1267.8
x1 = 0.3645 | 905.827 | 889.228 | 1319.7 | 1251.3
x1 = 0.507 | 949.509 | 931.327 | 1287.5 | 1217.8
x1 = 0.6043 | 986.214 | 966.695 | 1265.4 | 1195.1
x1 = 0.699 | 1029.23 | 1008.07 | 1244.6 | 1174.3
x1 = 0.7455 | 1053.66 | 1031.55 | 1235.1 | 1164.8
x1 = 0.7816 | 1074.54 | 1051.57 | 1228.3 | 1157.8
x1 = 0.8142 | 1094.99 | 1071.24 | 1222.5 | 1151.9
x1 = 0.8429 | 1114.4 | 1089.86 | 1218.1 | 1147.4
x1 = 0.9034 | 1160.56 | 1134.21 | 1211.6 | 1140.5
x1 = 0.9579 | 1209.39 | 1181.34 | 1210.4 | 1136.8
x1 = 1 | 1252.74 | 1223.38 | 1212.8 | 1136

CCCCCCCCCCO [decan-1-ol] + ClC(Cl)=C(Cl)Cl
[2], x2 = 0
Details | mass density [kg/m3] | speed of sound [m/s]
293.15 K | 829.991 | 1396.4
313.15 K | 816.264 | 1328.7

BrCCBr [1,2-dibromoethane] + CCCCCCCCCCO
[2]
Details | mass density, 293.15 K [kg/m3] | mass density, 313.15 K [kg/m3] | speed of sound, 293.15 K [m/s] | speed of sound, 313.15 K [m/s]
x1 = 0.0713 | 873.696 | 859.289 | 1363.1 | 1296.4
x1 = 0.1171 | 903.742 | 888.874 | 1341.8 | 1275.4
x1 = 0.1704 | 940.915 | 925.398 | 1317.2 | 1251.8
x1 = 0.2858 | 1030.69 | 1013.6 | 1266 | 1202.9
x1 = 0.3911 | 1125.7 | 1106.72 | 1218.3 | 1157.2
x1 = 0.51 | 1252.15 | 1230.3 | 1167.7 | 1108.9
x1 = 0.543 | 1291.44 | 1268.7 | 1153.4 | 1095
x1 = 0.5903 | 1351.8 | 1327.54 | 1134.1 | 1076.8
x1 = 0.6875 | 1492.47 | 1464.54 | 1095.3 | 1040.5
x1 = 0.7289 | 1560.17 | 1530.45 | 1080 | 1025.9
x1 = 0.7873 | 1665.23 | 1632.9 | 1059.7 | 1006.6
x1 = 0.8411 | 1773.36 | 1738.48 | 1042.2 | 990.48
x1 = 0.9006 | 1908.2 | 1870.5 | 1025.5 | 975.34
x1 = 0.9495 | 2033.54 | 1993.5 | 1015.6 | 965.65
x1 = 1 | 2179.6 | 2137.7 | 1007 | 955.97

ClC(Cl)=C(Cl)Cl [tetrachloroethene]
[1]
Details | mass density [kg/m3] | speed of sound [m/s]
– | 1622.39 | 1053.8

CCCCCCCCCCO [decan-1-ol] + BrCCBr
[2], x2 = 0
Details | mass density [kg/m3] | speed of sound [m/s]
293.15 K | 829.991 | 1396.4
313.15 K | 816.264 | 1328.7

ClCCCl [1,2-dichloroethane]
[1]
Details | mass density [kg/m3] | speed of sound [m/s]
– | 1252.74 | 1212.8
